Laboratory results as given in PubChem BioAssay AID1963971 (Molecular Pharmacology Branch, DTP, NCI, 2024).

Test system: 953936-095-R-J2-PDC spheroids with HUVEC/MSC, viability
Experiment: Anticancer human tumor 953936-095-R-J2-PDC patient-derived cervical squamous cell carcinoma cell line growth inhibition [PI3K]
Conditions: for IC50: curve of first compound; for viability, T/C: stronger effect = lower value
How it was run: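 Spheroid viability read-out. Co-cultures contained the tumor line plus HUVEC and human MSCs. Each agent was paired with a PI3K inhibitor (inavolisib, alpelisib, duvelisib, copanlisib) across half-log dilutions starting at clinical Cmax, or at 10 microM when Cmax was unknown.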

[1] = second compound 0.00316 µM, first compound 0.0316 µM
[2] = second compound 0.00316 µM, first compound 0.1 µM
[3] = second compound 0.01 µM, first compound 0.0316 µM
[4] = second compound 0.01 µM, first compound 0.1 µM
[5] = second compound 0.0316 µM, first compound 0.0316 µM
[6] = second compound 0.0316 µM, first compound 0.1 µM
[7] = second compound 0.1 µM, first compound 0.0316 µM
[8] = second compound 0.1 µM, first compound 0.1 µM
[9] = second compound 0.316 µM, first compound 0.0316 µM
[10] = second compound 0.316 µM, first compound 0.1 µM
[11] = second compound 1 µM, first compound 0.0316 µM
[12] = second compound 1 µM, first compound 0.1 µM
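Further: spheroids exposed to compounds for seven days before read-out.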

With `CC(C)n1nc(-c2ccc3oc(N)nc3c2)c2c(N)ncnc21` + COc1c(OCCCN2CCOCC2)ccc2c3n(c(=NC(=O)c4cnc(N)nc4)nc12)CCN3 the IC50 (second compound 0.00316 µM) was 18.9 nM, the IC50 (second compound 0.01 µM) was 10.2 nM and the IC50 (second compound 0.0316 µM) was under 0.316 nM. For the same compound, the IC50 (second compound 0.1 µM) was under 0.316 nM, the IC50 (second compound 0.316 µM) was under 0.316 nM and the IC50 (second compound 1 µM) was under 0.316 nM. It also gave a viability, T/C (second compound 0.00316 µM, first compound 0.000316 µM) of 79%, a viability, T/C (second compound 0.00316 µM, first compound 0.001 µM) of 86.9% and a viability, T/C (second compound 0.00316 µM, first compound 0.00316 µM) of 84%. It also gave a viability, T/C (second compound 0.00316 µM, first compound 0.01 µM) of 60.3%, a viability, T/C [1] of 40.3% and a viability, T/C [2] of 14.4%. The viability, T/C (second compound 0.01 µM, first compound 0.000316 µM) was 66.7%, the viability, T/C (second compound 0.01 µM, first compound 0.001 µM) was 64.8% and the viability, T/C (second compound 0.01 µM, first compound 0.00316 µM) was 60.1%. The viability, T/C (second compound 0.01 µM, first compound 0.01 µM) was 51.5%, the viability, T/C [3] was 27.8% and the viability, T/C [4] was 11.2%. The viability, T/C (second compound 0.0316 µM, first compound 0.000316 µM) was 38.8%, the viability, T/C (second compound 0.0316 µM, first compound 0.001 µM) was 36% and the viability, T/C (second compound 0.0316 µM, first compound 0.00316 µM) was 31.5%. The viability, T/C (second compound 0.0316 µM, first compound 0.01 µM) was 23.5%, the viability, T/C [5] was 16.2% and the viability, T/C [6] was 7.15%. The viability, T/C (second compound 0.1 µM, first compound 0.000316 µM) was 18.2%, the viability, T/C (second compound 0.1 µM, first compound 0.001 µM) was 15.9% and the viability, T/C (second compound 0.1 µM, first compound 0.00316 µM) was 14.9%. The viability, T/C (second compound 0.1 µM, first compound 0.01 µM) was 11.2%, the viability, T/C [7] was 8.1% and the viability, T/C [8] was 4.33%. It also gave a viability, T/C (second compound 0.316 µM, first compound 0.000316 µM) of 6.68%, a viability, T/C (second compound 0.316 µM, first compound 0.001 µM) of 6.67% and a viability, T/C (second compound 0.316 µM, first compound 0.00316 µM) of 5.27%. The viability, T/C (second compound 0.316 µM, first compound 0.01 µM) was 4.78%, the viability, T/C [9] was 3.56% and the viability, T/C [10] was 2.2%. For the same compound, the viability, T/C (second compound 1 µM, first compound 0.000316 µM) was 1.45%, the viability, T/C (second compound 1 µM, first compound 0.001 µM) was 1.56% and the viability, T/C (second compound 1 µM, first compound 0.00316 µM) was 1.21%. For the same compound, the viability, T/C (second compound 1 µM, first compound 0.01 µM) was 1.41%, the viability, T/C [11] was 1.36% and the viability, T/C [12] was 1.27%.
With `Cn1nccc1Nc1nccc(-c2ccn(C(CO)c3ccc(Cl)c(F)c3)c(=O)c2)n1` (centres undefined) + COc1c(OCCCN2CCOCC2)ccc2c3n(c(=NC(=O)c4cnc(N)nc4)nc12)CCN3 the IC50 (second compound 0.00316 µM) was over 10000 nM, the IC50 (second compound 0.01 µM) was over 10000 nM and the IC50 (second compound 0.0316 µM) was under 31.6 nM. It also gave an IC50 (second compound 0.1 µM) of under 31.6 nM, an IC50 (second compound 0.316 µM) of under 31.6 nM and an IC50 (second compound 1 µM) of under 31.6 nM. The viability, T/C [1] was 79.8%, the viability, T/C [2] was 78.6% and the viability, T/C (second compound 0.00316 µM, first compound 0.316 µM) was 85.1%. For the same compound, the viability, T/C (second compound 0.00316 µM, first compound 1 µM) was 68.8%, the viability, T/C (second compound 0.00316 µM, first compound 3.16 µM) was 69.8% and the viability, T/C (second compound 0.00316 µM, first compound 10 µM) was 67.5%. For the same compound, the viability, T/C [3] was 63.5%, the viability, T/C [4] was 64.7% and the viability, T/C (second compound 0.01 µM, first compound 0.316 µM) was 67.3%. It also gave a viability, T/C (second compound 0.01 µM, first compound 1 µM) of 61.7%, a viability, T/C (second compound 0.01 µM, first compound 3.16 µM) of 59.4% and a viability, T/C (second compound 0.01 µM, first compound 10 µM) of 49.1%. The viability, T/C [5] was 39.4%, the viability, T/C [6] was 38.2% and the viability, T/C (second compound 0.0316 µM, first compound 0.316 µM) was 36.2%. The viability, T/C (second compound 0.0316 µM, first compound 1 µM) was 30.5%, the viability, T/C (second compound 0.0316 µM, first compound 3.16 µM) was 32.3% and the viability, T/C (second compound 0.0316 µM, first compound 10 µM) was 31.4%. For the same compound, the viability, T/C [7] was 16.1%, the viability, T/C [8] was 15.6% and the viability, T/C (second compound 0.1 µM, first compound 0.316 µM) was 12.8%. It also gave a viability, T/C (second compound 0.1 µM, first compound 1 µM) of 10.8%, a viability, T/C (second compound 0.1 µM, first compound 3.16 µM) of 8.15% and a viability, T/C (second compound 0.1 µM, first compound 10 µM) of 5.83%. The viability, T/C [9] was 4.89%, the viability, T/C [10] was 4.56% and the viability, T/C (second compound 0.316 µM, first compound 0.316 µM) was 3.55%. It also gave a viability, T/C (second compound 0.316 µM, first compound 1 µM) of 2.04%, a viability, T/C (second compound 0.316 µM, first compound 3.16 µM) of 1.28% and a viability, T/C (second compound 0.316 µM, first compound 10 µM) of 1.21%. It also gave a viability, T/C [11] of 1.1%, a viability, T/C [12] of 1.11% and a viability, T/C (second compound 1 µM, first compound 0.316 µM) of 0.44%. The viability, T/C (second compound 1 µM, first compound 1 µM) was 0.35%, the viability, T/C (second compound 1 µM, first compound 3.16 µM) was 0.28% and the viability, T/C (second compound 1 µM, first compound 10 µM) was 0.34%.
